Columns and labels:
[1] = tested on: Phytophthora infestans; test: whole plant or invertebrate; assay type: in vivo; details: Late blight on tomato; class of control value
[2] = tested on: Colletotrichum orbiculare; test: Test Example H: Anthracnose on cucumber; details: Anthracnose on cucumber (Sagami Hanjiro); 250 ppm spray, 2.5 ml/pot; assessed 6 to 10 days after inoculation
[3] = tested on: Botrytis cinerea; test: Test Example B: Gray mold on tomato; details: Gray mold on tomato; class of control value
[4] = tested on: Puccinia recondita; test: Test Example E: Brown rust on wheat; assay type: in vivo; details: Brown rust on wheat; class of control value
[5] = tested on: Plasmopara viticola; test: Test Example G: Downy mildew on vine; details: Downy mildew on vine (Neomuscat); 250 ppm spray, 2.5 ml/pot; assessed 7 to 10 days after inoculation
[6] = tested on: Blumeria graminis f. sp. hordei; test: Test Example D: Powdery mildew on barley; details: Powdery mildew on barley; class of control value
[7] = tested on: Magnaporthe grisea; test: whole plant or invertebrate; assay type: in vivo; details: Blast on rice; class of control value
[8] = tested on: Alternaia brassicicola; test: Test Example C: Alternaria sooty spot on cabbage; assay type: in vivo; details: Alternaria sooty spot on cabbage; class of control value
Excerpt: Seeds of a test plant (cabbage variety: Shikidori) were planted and cultivated until the cotyledons extended.
<Control Value> Control value=100{1−(n/3)}

With `CC(C)Cc1ccc(=O)n(C)c1-c1ccc(Cl)cc1Cl` [compound 134] the “Test F control value class” value [1] was “L (50% or less control value)”, the “Test H control value class” value [2] was “L (50% or less control value)” and the “Test B control value class” value [3] was “H (more than 50% control value)”. The “Test E control value class” value [4] was “H (more than 50% control value)”, the “Test G control value class” value [5] was “H (more than 50% control value)” and the “Test D control value class” value [6] was “H (more than 50% control value)”. The “Test A control value class” value [7] was “H (more than 50% control value)” and the “Test C control value class” value [8] was “L (50% or less control value)”.

`CCn1c(-c2ccc(Cl)cc2Cl)c(CC(C)C)ccc1=O` [compound 135] was tested, and the “Test F control value class” value [1] was “L (50% or less control value)”, the “Test H control value class” value [2] was “H (more than 50% control value)” and the “Test B control value class” value [3] was “H (more than 50% control value)”. The “Test E control value class” value [4] was “H (more than 50% control value)”, the “Test G control value class” value [5] was “H (more than 50% control value)” and the “Test D control value class” value [6] was “H (more than 50% control value)”. For the same compound, the “Test A control value class” value [7] was “H (more than 50% control value)” and the “Test C control value class” value [8] was “H (more than 50% control value)”.

`CCn1c(-c2ccc(Br)cc2F)c(CC(C)C)ccc1=O` [compound 136] was tested, and the “Test F control value class” value [1] was “L (50% or less control value)”, the “Test H control value class” value [2] was “L (50% or less control value)” and the “Test B control value class” value [3] was “H (more than 50% control value)”. For the same compound, the “Test E control value class” value [4] was “H (more than 50% control value)”, the “Test G control value class” value [5] was “H (more than 50% control value)” and the “Test D control value class” value [6] was “H (more than 50% control value)”. For the same compound, the “Test A control value class” value [7] was “H (more than 50% control value)” and the “Test C control value class” value [8] was “L (50% or less control value)”.

In the case of `CC(C)Cc1cc(Cl)c(=O)n(C)c1-c1ccc(Cl)cc1Cl` [compound 137], the “Test F control value class” value [1] is reported as “L (50% or less control value)”, the “Test H control value class” value [2] is reported as “H (more than 50% control value)” and the “Test B control value class” value [3] is reported as “H (more than 50% control value)”. The “Test E control value class” value [4] was “H (more than 50% control value)”, the “Test G control value class” value [5] was “H (more than 50% control value)” and the “Test D control value class” value [6] was “H (more than 50% control value)”. For the same compound, the “Test A control value class” value [7] was “H (more than 50% control value)” and the “Test C control value class” value [8] was “H (more than 50% control value)”.

With `CC(C)Cc1cc(Br)c(=O)n(C)c1-c1ccc(Cl)cc1Cl` [compound 138] the “Test F control value class” value [1] was “L (50% or less control value)”, the “Test H control value class” value [2] was “H (more than 50% control value)” and the “Test B control value class” value [3] was “H (more than 50% control value)”. The “Test E control value class” value [4] was “H (more than 50% control value)”, the “Test G control value class” value [5] was “L (50% or less control value)” and the “Test D control value class” value [6] was “L (50% or less control value)”. For the same compound, the “Test A control value class” value [7] was “H (more than 50% control value)” and the “Test C control value class” value [8] was “H (more than 50% control value)”.

`CCn1c(-c2ccc(Cl)cc2Cl)c(CC(C)C)cc(Cl)c1=O` [compound 139] was tested, and the “Test F control value class” value [1] was “L (50% or less control value)”, the “Test H control value class” value [2] was “H (more than 50% control value)” and the “Test B control value class” value [3] was “H (more than 50% control value)”. For the same compound, the “Test E control value class” value [4] was “H (more than 50% control value)”, the “Test G control value class” value [5] was “H (more than 50% control value)” and the “Test D control value class” value [6] was “H (more than 50% control value)”. For the same compound, the “Test A control value class” value [7] was “H (more than 50% control value)” and the “Test C control value class” value [8] was “H (more than 50% control value)”.

With `CCn1c(-c2ccc(Cl)cc2Cl)c(CC(C)C)cc(Br)c1=O` [compound 140] the “Test F control value class” value [1] was “L (50% or less control value)”, the “Test H control value class” value [2] was “H (more than 50% control value)” and the “Test B control value class” value [3] was “H (more than 50% control value)”. For the same compound, the “Test E control value class” value [4] was “H (more than 50% control value)”, the “Test G control value class” value [5] was “H (more than 50% control value)” and the “Test D control value class” value [6] was “H (more than 50% control value)”. The “Test A control value class” value [7] was “H (more than 50% control value)” and the “Test C control value class” value [8] was “H (more than 50% control value)”.

For `CCn1c(-c2ccc(C)cc2F)c(CC(C)C)ccc1=O` [compound 141], the “Test F control value class” value [1] was “L (50% or less control value)”, the “Test H control value class” value [2] was “L (50% or less control value)” and the “Test B control value class” value [3] was “H (more than 50% control value)”. For the same compound, the “Test E control value class” value [4] was “H (more than 50% control value)”, the “Test G control value class” value [5] was “H (more than 50% control value)” and the “Test D control value class” value [6] was “H (more than 50% control value)”. The “Test A control value class” value [7] was “H (more than 50% control value)” and the “Test C control value class” value [8] was “H (more than 50% control value)”.

With `CCn1c(-c2ccc(Br)cc2F)c(CC(C)C)cc(Br)c1=O` [compound 142] the “Test F control value class” value [1] was “L (50% or less control value)”, the “Test H control value class” value [2] was “H (more than 50% control value)” and the “Test B control value class” value [3] was “H (more than 50% control value)”. The “Test E control value class” value [4] was “H (more than 50% control value)”, the “Test G control value class” value [5] was “H (more than 50% control value)” and the “Test D control value class” value [6] was “H (more than 50% control value)”. The “Test A control value class” value [7] was “H (more than 50% control value)” and the “Test C control value class” value [8] was “H (more than 50% control value)”.

With `CCn1c(-c2ccc(Br)cc2F)c(CC(C)C)cc(Cl)c1=O` [compound 143] the “Test F control value class” value [1] was “L (50% or less control value)”, the “Test H control value class” value [2] was “H (more than 50% control value)” and the “Test B control value class” value [3] was “H (more than 50% control value)”. For the same compound, the “Test E control value class” value [4] was “H (more than 50% control value)”, the “Test G control value class” value [5] was “H (more than 50% control value)” and the “Test D control value class” value [6] was “H (more than 50% control value)”. The “Test A control value class” value [7] was “H (more than 50% control value)” and the “Test C control value class” value [8] was “H (more than 50% control value)”.

For `CCn1c(-c2ccc(F)cc2)c(CC(C)C)ccc1=O` [compound 144], the “Test F control value class” value [1] was “L (50% or less control value)”, the “Test H control value class” value [2] was “L (50% or less control value)” and the “Test B control value class” value [3] was “L (50% or less control value)”. The “Test E control value class” value [4] was “H (more than 50% control value)”, the “Test G control value class” value [5] was “H (more than 50% control value)” and the “Test D control value class” value [6] was “H (more than 50% control value)”. The “Test A control value class” value [7] was “L (50% or less control value)” and the “Test C control value class” value [8] was “H (more than 50% control value)”.

In the case of `CC(C)Cc1ccc(=O)n(C)c1-c1ccc(F)cc1` [compound 145], the “Test F control value class” value [1] is reported as “L (50% or less control value)”, the “Test H control value class” value [2] is reported as “L (50% or less control value)” and the “Test B control value class” value [3] is reported as “L (50% or less control value)”. The “Test E control value class” value [4] was “H (more than 50% control value)”, the “Test G control value class” value [5] was “L (50% or less control value)” and the “Test D control value class” value [6] was “L (50% or less control value)”. The “Test A control value class” value [7] was “L (50% or less control value)” and the “Test C control value class” value [8] was “H (more than 50% control value)”.

For `CCn1c(-c2ccc(C)cc2F)c(CC(C)C)cc(Cl)c1=O` [compound 146], the “Test F control value class” value [1] was “L (50% or less control value)”, the “Test H control value class” value [2] was “L (50% or less control value)” and the “Test B control value class” value [3] was “H (more than 50% control value)”. The “Test E control value class” value [4] was “H (more than 50% control value)”, the “Test G control value class” value [5] was “H (more than 50% control value)” and the “Test D control value class” value [6] was “H (more than 50% control value)”. For the same compound, the “Test A control value class” value [7] was “H (more than 50% control value)” and the “Test C control value class” value [8] was “H (more than 50% control value)”.

`CCn1c(-c2ccc(C)cc2F)c(CC(C)C)cc(Br)c1=O` [compound 147] was tested, and the “Test F control value class” value [1] was “L (50% or less control value)”, the “Test H control value class” value [2] was “L (50% or less control value)” and the “Test B control value class” value [3] was “H (more than 50% control value)”. For the same compound, the “Test E control value class” value [4] was “H (more than 50% control value)”, the “Test G control value class” value [5] was “H (more than 50% control value)” and the “Test D control value class” value [6] was “H (more than 50% control value)”. The “Test A control value class” value [7] was “H (more than 50% control value)” and the “Test C control value class” value [8] was “H (more than 50% control value)”.

Reference: patent US11147272B2, “Pyridone compounds and agricultural and horticultural fungicides comprising the same as active ingredients” (MITSUI CHEMICALS AGRO, INC., priority 2017, dated 2021)
